According to PMC5302928, “[^64Cu]XYIMSR-06: A dual-motif CAIX ligand for PET imaging of clear cell renal cell carcinoma” (Oncotarget, 2016):
Where two headings read alike, the source gives them in different places.

Columns and labels:
[1] = biological target: T1, CAIX (Homo sapiens, UniProt Q16790); experiment: Competitive fluorescence polarization assay with FITC-labeled dual-motif ligand; conditions: 100 nM CAIX, 80 nM FITC-labeled ligand; read-out: IC50 (binding to CAIX, fluorescence polarization)
T1 construct: purchased R&D Systems (Minneapolis, MN)
Description: Fluorescence polarization (FP) experiments were performed in 21 μL of the assay buffer (12.5 mM Tris-HCl, pH 7.5, 75 mM NaCl) in transparent flat bottom 384 well Small Volume™ LoBase Microplates (Greiner Bio-One, Frickenhausen Germany). The FP reaction employed 100 nM of purified CAIX (R&D systems, Minneapolis, MN) and 80 nM FITC-labeled ligand within the assay buffer. The FP values were measured as mP units using the Safire2™ plate reader (Tecan, Morrisville, NC) with excitation at 475 nm and emission at 532 nm emission. 100 nM CAIX was incubated with serially diluted (from 8 μM to […]) concentrations of the three targeting molecules, 1 and [^63/65Cu]XYIMSR-06 for 30 min at room temperature in 384 well plates. 80 nM FITC-labeled ligand was added to each well and the reaction was incubated for 30 min at room temperature followed by FP measurements. Experiments were carried out in triplicate and the concentration resulting in 50% response (IC50) was calculated in GraphPad Prism 5 (GraphPad Software, La Jolla, CA) using the sigmoidal dose-response regression function. […]
amino)butyl)-1H-1,2,3-triazol-1-yl)butyl)-6,9-dioxa- (FP) assay as described in the experimental section. The 3,12,15,19,23-pentaazaoctacosyl)-1,4,7-triazonane-1,4- IC50 values determined for dual motif precursor 1 (Figure diyl)diacetic acid ([Al19F]XYIMSR-04) . […]
eluded at 35.5 min. MS, calculated for C H AlFN N Heart, lungs, pancreas, spleen, fat, brain, muscle, small […]
and tumor were collected. Each organ was weighed and Radiosynthesis the tissue radioactivity was measured with an automated gamma counter (1282 Compugamma CS, Pharmacia/
For convenience, Na18F in saline purchased from LKBNuclear, Inc., Mt. […] Due to was calculated by comparison with samples of a standard […]
Radiosynthesis of [Al18F]XYIMSR-04. 400μg of Data were expressed as mean ± standard deviation XYIMSR-04 in 200 μL water/Ethanol 1:1 was added to (SD). […] To this mixture, 20 μL of 2 mM AlCl3/NaOAc significance was calculated using a paired t test. […]

[2] = biological target: T1, CAIX; parameters: method as in PMID 26418876; conditions: positive control, reported value; read-out: IC50 (binding to CAIX, same method); cited from earlier work

SMILES	IC50 [1]	IC50 [2]
CC(CCC(=O)NC(CC(=O)NC(CC(=O)NC(CCCCn1cc(CCCC(=O)Nc2nnc(S(N)(=O)=O)s2)nn1)C(=O)NCCOCCOCCN)C(=O)O)C(=O)O)(c1ccc(O)cc1)c1ccc(O)cc1 (stereo not shown) [Compound 1, reference compound]	63.6 ± 2.8 nM	75.9 nM
CC(CCC(=O)N[C@@H](CC(=O)N[C@@H](CC(=O)N[C@@H](CCCCn1cc(CCCC(=O)Nc2nnc(S(N)(=O)=O)s2)nn1)C(=O)NCCOCCOCCNC(=O)C[N+]12CC[N+]34CC[N+]5(CC1)CC(=O)[O][Al-3]235([F])[O]C(=O)C4)C(=O)O)C(=O)O)(c1ccc(O)cc1)c1ccc(O)cc1 (stereo partly shown) [[Al^19F]XYIMSR-04]	96.7 ± 3.3 nM	
CC(CCC(=O)N[C@@H](CC(=O)N[C@@H](CC(=O)N[C@@H](CCCCn1cc(CCCC(=O)Nc2nnc(S(N)(=O)=O)s2)nn1)C(=O)NCCOCCOCCNC(=S)Nc1ccc(CC2CN3CCN(CCN2CC(=O)O)CC(=O)[O][Cu][O]C(=O)C3)cc1)C(=O)O)C(=O)O)(c1ccc(O)cc1)c1ccc(O)cc1 (stereo partly drawn) [[^63/65Cu]XYIMSR-06, 2,2′,2″-(2-(4-(3-((11S,15S,19S)-15,19-Dicarboxy-24,24-bis(4-hydroxyphenyl)-10,13,17,21-tetraoxo-11-(4-(4-(4-oxo-4-((5-sulfamoyl-1,3,4-thiadiazol-2-yl)amino)butyl)-1H-1,2,3-triazol-1-yl)butyl)-3,6-dioxa-9,12,16,20-tetraazapentacosyl)thioureido)benzyl)-1,4,7-triazonane-1,4,7-triyl)triacetic acid]	156 ± 4.3 nM	
